Measured values published in publication PMC6747455, “Active Site Architecture and Reaction Mechanism Determination of Cold Adapted β-D-galactosidase from Arthrobacter sp. 32cB” (International Journal of Molecular Sciences, 2019).
Blank lines part the entries; values can stand above or below the compound they belong to.

Assays:
[1] = target: T1, ArthβDG (Arthrobacter sp. 32cB, UniProt A0A023UGN9); assay: hydrolysis in crystal, blue coloration; assay type: biochemical; details: 3 to 20 molar excess; blue within 3 min; galactose found in the structure
T1 construct: recombinant, pBAD/Myc-His A vector (pBAD-Bgal32cB), E. coli LMG 194 host; ion exchange and size exclusion; five-domain protein, 110 kDa; functional dimer; GH2 family; catalytic residues E441 and E517

[2] = target: T1, ArthβDG; assay: hydrolysis in crystal, product seen by X-ray; assay type: biochemical; details: crystal soaked 1 min
[3] = target: ArthβDG_E441Q mutein (β-D-galactosidase from Arthrobacter sp. 32cB, E441Q) (Arthrobacter sp. 32cB); assay: crystal structure; crystals grown in 25–45% Tacsimate, pH 6.0–8.0, seeded; space group P3121, one protein monomer in the asymmetric unit; dimer shown in Figure 2

T1 sequence (A0A023UGN9 1-1010): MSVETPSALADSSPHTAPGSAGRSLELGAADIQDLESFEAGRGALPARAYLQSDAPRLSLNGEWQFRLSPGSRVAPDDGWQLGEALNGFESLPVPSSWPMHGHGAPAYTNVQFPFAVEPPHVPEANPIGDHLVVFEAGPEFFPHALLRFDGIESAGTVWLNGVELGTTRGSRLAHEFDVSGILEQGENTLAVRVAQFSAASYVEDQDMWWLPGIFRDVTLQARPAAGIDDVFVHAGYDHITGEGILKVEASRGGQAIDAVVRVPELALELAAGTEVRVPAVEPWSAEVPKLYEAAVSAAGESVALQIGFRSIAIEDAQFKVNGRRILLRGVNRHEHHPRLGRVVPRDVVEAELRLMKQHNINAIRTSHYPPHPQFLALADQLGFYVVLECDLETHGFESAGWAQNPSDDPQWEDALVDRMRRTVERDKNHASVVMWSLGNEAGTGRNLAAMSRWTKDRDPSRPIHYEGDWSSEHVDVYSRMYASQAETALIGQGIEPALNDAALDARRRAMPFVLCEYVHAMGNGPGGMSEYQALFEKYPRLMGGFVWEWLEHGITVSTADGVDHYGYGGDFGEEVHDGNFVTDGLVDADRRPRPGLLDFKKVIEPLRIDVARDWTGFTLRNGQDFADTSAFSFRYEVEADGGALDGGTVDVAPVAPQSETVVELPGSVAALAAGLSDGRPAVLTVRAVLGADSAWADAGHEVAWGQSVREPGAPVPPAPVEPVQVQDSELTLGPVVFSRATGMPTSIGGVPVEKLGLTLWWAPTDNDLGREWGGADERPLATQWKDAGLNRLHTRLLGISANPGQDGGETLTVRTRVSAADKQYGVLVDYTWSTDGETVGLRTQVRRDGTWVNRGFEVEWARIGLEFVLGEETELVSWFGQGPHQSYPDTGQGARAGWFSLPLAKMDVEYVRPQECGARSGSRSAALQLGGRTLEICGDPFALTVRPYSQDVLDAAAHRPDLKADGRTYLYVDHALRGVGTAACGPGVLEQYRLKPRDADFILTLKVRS

Compound: OC[C@H]1O[C@@H](Oc2c[nH]c3ccc(Br)c(Cl)c23)[C@H](O)[C@@H](O)[C@H]1O [X-gal, 5-bromo-4-chloro-3-indolyl-β-D-galactopyranoside]
hydrolysis in crystal, blue coloration [1]: the enzyme in the crystal was in its active form and performed hydrolysis of X-gal

Compound: OC[C@H]1O[C@@H](O[C@H]2[C@H](O)[C@@H](O)C(O)O[C@@H]2CO)[C@H](O)[C@@H](O)[C@H]1O (stereo partly drawn) [LAC, lactose]
hydrolysis in crystal, product seen by X-ray [2]: the active enzyme performed hydrolysis of lactose in crystal

stoichiometry N [3]: 2
Compound: ArthβDG_E441Q mutein (β-D-galactosidase from Arthrobacter sp. 32cB, E441Q) (enzyme)
